{
  "source": "paper PMC4871480",
  "about": "“A Miniaturized Screen of a Schistosoma mansoni Serotonergic G Protein-Coupled Receptor Identifies Novel Classes of Parasite-Selective Inhibitors” (PLoS Pathogens, 2016)",
  "key": {"[1]": {"molecular_target": "T1, Sm.5HTR (Schistosoma mansoni, UniProt G4V5G4)", "T1 sequence (G4V5G4 entry or part of it)": "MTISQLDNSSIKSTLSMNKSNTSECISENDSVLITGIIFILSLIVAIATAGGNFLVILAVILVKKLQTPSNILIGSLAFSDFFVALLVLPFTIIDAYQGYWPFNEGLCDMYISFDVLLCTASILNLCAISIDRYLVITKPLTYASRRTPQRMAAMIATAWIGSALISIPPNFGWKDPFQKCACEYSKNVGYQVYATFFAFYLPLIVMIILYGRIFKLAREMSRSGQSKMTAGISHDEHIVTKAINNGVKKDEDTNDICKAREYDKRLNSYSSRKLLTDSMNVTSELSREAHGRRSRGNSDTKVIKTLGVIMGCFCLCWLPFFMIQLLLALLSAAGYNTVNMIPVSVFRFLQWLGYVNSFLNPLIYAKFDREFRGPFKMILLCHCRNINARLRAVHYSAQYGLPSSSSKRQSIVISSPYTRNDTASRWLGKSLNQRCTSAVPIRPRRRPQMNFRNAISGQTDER", "assay": "Antagonist washout (inactivating antagonist) GloSensor assay on suspension cells", "format": "cell-based", "description": "To test putative irreversible antagonists, assays on suspension cells were performed one day post transfection. […] Compounds were added at 10 μM, and after 30 minute incubation at room temperature cells were centrifuged (300 RCF, 5 minutes) and resuspended in fresh media. This wash step was repeated, and cells were resuspended in HBSS supplemented with 0.1% BSA, 20mM HEPES and GloSensor reagent. Cells were gently rotated to prevent aggregation and settling over the course of the two hour equilibration period, after which time they were transferred to 96 well plates at a density of 8 x 10^4 cells / 100μL per well and assays described for adherent cells."}, "[2]": {"test_system": "adult schistosomes", "assay": "Adult schistosome mobility assay", "format": "in vivo, Schistosoma mansoni", "conditions": "10μM; for effect on 5-HT evoked increases in worm movement / time to recovery of movement after drug removal, male worms: 5-HT 100μM; for time to recovery of movement after drug removal, male worms: 2 hour exposure; for effect on basal movement of adult worms: worms at rest", "description": "Female Swiss Webster mice exposed to Schistosoma mansoni cerceria (Strain PR-1) at 5–7 weeks old were obtained from BEI Resources (Cat. number NR-34792) and sacrificed 6–8 weeks post-infection. Mature S. mansoni were harvested from the mesenteric vasculature by portal perfusion. Briefly, mice were anesthetized in a CO2 chamber and sacrificed by cervical dislocation. Mice were perfused with sodium citrate (25mM) and adult schistosomes were harvested from the mesenteric veins. Schistosomes were washed in RPMI media containing penicillin (1000 units/mL), streptomycin (1000 μg/mL) and 25mM HEPES, then transferred to RPMI media supplemented with 2mM glutamine and 5% heat inactivated FBS. Worms were incubated overnight at 37°C, 5% CO2 before conducting assays. Recordings of adult schistosome movement were captured using a Zeiss Discovery v20 stereomicroscope and a QiCAM 12-bit cooled color CCD camera. Videos were acquired at a rate of four frames per second for one minute. Recordings of female worms were acquired at 7.6x magnification, 30 mm field of view and recordings of male worms were acquired at a 5.1x magnification, 45 mm field of view. Analysis was performed in ImageJ as described previously. Briefly, image (.tiff) stacks of each recording were imported and processed by converting to binary format so that pixel measurements represent area of the worms’ bodies. Mobility was quantified by measuring the difference in pixels resulting from subtracting the value of one frame (n) from those of the next frame in the sequence (n+1). This difference was expressed as a percentage of the pixels in the initial frame (n), providing a measurement of the worms’ movement over a period of 0.25 seconds. This calculation was performed for each frame in the video, and the results were averaged over the length of the recording. Values reported represent the mean (±) standard error of at least three independent experiments. Animal work was carried out with the oversight and approval of the Laboratory Animal Resources facility at the Iowa State University College of Veterinary Medicine."}, "[3]": {"molecular_target": "T1, Sm.5HTR", "assay": "cell-based", "format": "cell-based", "conditions": "for potency (IC50) at Sm.5HTR: Fig 7 quadrant", "description": "(§1) HEK293 cells (ATCC CRL-1573.3) were cultured in DMEM supplemented with 10% fetal bovine serum (FBS), penicillin (100 units/ml), streptomycin (100 μg/ml), and L-glutamine (290 μg/ml). Cells were transiently transfected (ViaFect, Promega) as per the manufacturer’s protocol at a density of 2x10^6 cells per T-25 cell-culture flask. Cells were transfected with plasmids encoding GloSensor (Promega) and either Sm.5HTR (Smp_126730, GenBank accession number KF444051.1) or Sm.5HTRL (KX150867), bothGPCRs being codon optimized for mammalian expression, or Hs.5HT7a (GenBank accession number NM_000872.4, R&D Systems) subcloned into pCS2(-). Cell culture reagents were from Invitrogen. Epitope tagged constructs were used to verify expression, and untagged constructs used for all luminescence assays.\n(§2) For assays performed on adherent cells, HEK-293 cells were transferred one day post transfection to 96 well, solid white plates (Corning, cat # 3917) coated with 0.01% poly-L-lysine (Sigma Aldrich) at a density of 5 x 10^4 cells / well in DMEM supplemented with 1% dialyzed FBS (Gibco). After overnight culture (37°C/5% CO2), media was decanted and replaced with 100μL / well HBSS supplemented with 0.1% BSA, 20mM HEPES (pH 7.4) and GloSensor reagent. Plates were allowed to equilibrate at room temperature for two hours prior to performing luminescence assays (GloMax-Multi Detection System plate reader, Promega). Conditions for individual assays were described as per figure legends. The standard assay to detect changes in cAMP utilized the F22 sensor in media supplemented with IBMX (200μM). Ligands were added at a concentration of 20x per well for experiments (i.e. 5μl of drug solution added to 100μl of cells). […] For the resazurin reduction assay for cellular viability, cells were incubated with resazurin (final concentration, 10μM) and tested ligands with fluorescence measurements (560 nm excitation/590 nm emission) made at 1.5hr intervals."}, "[4]": {"molecular_target": "T2, Hs.5HT7R (Homo sapiens, UniProt P34969)", "T2 construct": "host or cells: HEK293 (ATCC CRL-1573.3), transient transfection, pCS2(-) vector", "T2 sequence (P34969 1-445 isoform P34969-2)": "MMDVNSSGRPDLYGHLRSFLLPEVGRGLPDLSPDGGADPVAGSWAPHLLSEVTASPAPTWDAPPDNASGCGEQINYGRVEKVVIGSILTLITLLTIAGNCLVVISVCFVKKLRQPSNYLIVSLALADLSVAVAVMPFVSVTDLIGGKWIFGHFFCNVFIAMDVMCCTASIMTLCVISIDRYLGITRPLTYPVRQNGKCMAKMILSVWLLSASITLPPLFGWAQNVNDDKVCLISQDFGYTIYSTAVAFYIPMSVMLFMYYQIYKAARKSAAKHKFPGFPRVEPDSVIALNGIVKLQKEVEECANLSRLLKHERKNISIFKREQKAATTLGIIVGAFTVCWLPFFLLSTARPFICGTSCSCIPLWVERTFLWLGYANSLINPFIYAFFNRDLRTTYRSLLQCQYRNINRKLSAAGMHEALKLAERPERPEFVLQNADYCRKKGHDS", "assay": "GloSensor cAMP assay in HEK293 cells expressing Hs.5HT7R", "format": "cell-based", "conditions": "for potency (IC50) at Hs.5HT7R: Fig 7 quadrant", "description": "as §1, §2"}, "[5]": {"test_system": "S. mansoni schistosomules", "assay": "Schistosomule contractility assay", "format": "in vivo, Schistosoma mansoni", "conditions": "Schistosoma mansoni, read-out: IC50 (inhibition of 5-HT evoked contractions)", "description": "Biomphalaria glabrata (M-line) snails exposed to Schistosoma mansoni miracidia (Strain PR-1) were obtained from BEI Resources (Cat. number NR-21961) and cercaria were shed following exposure to light (1.5 hours). Cercaria were manually transformed into schistosomula by vortexing (3 x 45 seconds, each separated by 3 minutes on ice) and tails were removed by gradient centrifugation (24ml Percoll, 4ml 10X EMEM, 1.5ml penicillin-streptomycin, 1ml of 1M HEPES in 0.85% NaCl, 9.5ml distilled water) at 500g/15min at 4°C. Supernatant containing tails was discarded, and schistosomules were resuspended in Basch media and incubated (37°C, 5% CO2) overnight before conducting mobility assays. For contractility experiments, somules were incubated in 5-HT free Basch media to resolve a basal contractility rate. […] Schistosomules were incubated in 24 well plates (~200 schistosomules / 0.5mL media per well) for 30 minutes (37°C/5% CO2) prior to acquiring videos of schistosome movement (1 minute recordings / well) using a Nikon Coolpix 5700 camera affixed to a Nikon Eclipse TS100 microscope (10x objective). The WrmTrck plugin for ImageJ was used to quantify worm mobility. Briefly, the major axis of each schistosomule body length was extracted from the raw output of WrmTrck and an average length was determined for the duration of the recording. Contractions were quantified by determining the number of episodes during which the worm body length deviated from the average by over 20%. S. mansoni protocols were approved by the Iowa State University Institutional Biosafety Committee."}, "[6]": {"test_system": "regenerating planarians", "design": "method as in PMID 24586156", "conditions": "cited from earlier work"}, "[7]": {"molecular_target": "Sm.5HTRL (Schistosoma mansoni, UniProt A0A173FEI8)", "sequence (A0A173FEI8 entry or part of it)": "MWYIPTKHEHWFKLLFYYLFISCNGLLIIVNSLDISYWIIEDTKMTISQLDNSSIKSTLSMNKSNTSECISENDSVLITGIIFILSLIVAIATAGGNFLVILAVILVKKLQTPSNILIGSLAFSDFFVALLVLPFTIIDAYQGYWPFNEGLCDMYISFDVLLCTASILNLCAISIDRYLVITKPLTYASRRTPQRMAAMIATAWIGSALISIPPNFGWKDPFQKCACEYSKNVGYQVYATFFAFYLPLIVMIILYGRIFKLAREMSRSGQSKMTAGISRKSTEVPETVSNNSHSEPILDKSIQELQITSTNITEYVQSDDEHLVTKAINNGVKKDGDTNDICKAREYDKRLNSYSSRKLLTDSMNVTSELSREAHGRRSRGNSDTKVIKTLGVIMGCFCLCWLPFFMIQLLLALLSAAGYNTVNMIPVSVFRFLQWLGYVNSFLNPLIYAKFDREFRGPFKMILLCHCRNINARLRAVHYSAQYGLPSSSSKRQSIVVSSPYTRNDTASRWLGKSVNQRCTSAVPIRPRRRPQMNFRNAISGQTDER", "assay": "GloSensor cAMP assay in HEK293 cells expressing Sm.5HTRL", "format": "cell-based", "conditions": "antagonists 10μM, 5-HT EC80 dose", "description": "as §1, §2"}},
  "note": "“Also recorded” adds a separate entry of the source. Read-outs that look alike come from different tables or passages of the source.",
  "data": [
    {"molecule": "CC(C)C[C@H]1C(=O)N2CCC[C@H]2[C@]2(O)O[C@](NC(=O)[C@@H]3C=C4c5cccc6[nH]c(Br)c(c56)C[C@H]4N(C)C3)(C(C)C)C(=O)N12", "note": "[bromocriptine]", "values": [
      {"measurement": "inhibition of Sm.5HTR after antagonist wash-out", "setting": "[1]; 10μM for 30 mins, washout, 5-HT response 1hr later", "value": "long-lasting inhibition"},
      {"measurement": "potency for Sm.5HTR inhibition after washout", "setting": "[1]; titration, Fig 6E", "value": "most potent"},
      {"measurement": "effect on 5-HT evoked increases in worm movement", "setting": "[2]", "value": "inhibited"},
      {"measurement": "time to recovery of movement after drug removal, male worms", "setting": "[2]", "value": 24, "unit": "h"},
      {"measurement": "effect on basal movement of adult worms", "setting": "[2]", "value": "markedly inhibited worm movements at rest"},
      {"measurement": "ligand type at Sm.5HTR", "setting": "[3]; Fig 5F", "value": "Antagonist"},
      {"measurement": "potency (IC50) at Sm.5HTR", "setting": "[3]", "value": "sub-μM potency"},
      {"measurement": "Kb", "setting": "[3]; KB (affinity constant, Schild regression), right-shift of 5-HT dose-response", "value": 410, "unit": "nM"},
      {"measurement": "selectivity for the parasitic 5-HT receptor", "setting": "[3]; Sm.5HTR over Hs.5HT7R", "value": "~ 10 fold"},
      {"measurement": "inhibition of 5-HT evoked cAMP generation", "setting": "[3]; at higher concentrations (>10μM)", "value": "almost complete inhibition"},
      {"measurement": "agonist efficacy at Sm.5HTR", "setting": "[3]; dose response, Fig 5A", "value": "no efficacy"},
      {"measurement": "acute inhibition of 5-HT (10μM) response at Sm.5HTR", "setting": "[3]; drug 10μM, preincubation", "value": "acutely inhibited"},
      {"measurement": "Kb", "setting": "[3]; pKB ± S.E.M, Schild regression", "value": 407, "unit": "nM"},
      {"measurement": "potency (IC50) at Hs.5HT7R", "setting": "[4]", "value": "supra-μM potency"},
      {"measurement": "IC50", "setting": "[5]", "value": "≤ 1000", "unit": "nM"},
      {"measurement": "concentration evoking bipolarity, fold less than PZQ", "setting": "[6]", "value": 100, "unit": "fold"}
    ]},
    {"molecule": "COc1cc2c(cc1OC)[C@@H]1Cc3ccc(OC)c(OC)c3CN1CC2", "note": "[rotundine]", "values": [
      {"measurement": "effect on 5-HT evoked increases in worm movement", "setting": "[2]", "value": "inhibited"},
      {"measurement": "time to recovery of movement after drug removal, male worms", "setting": "[2]", "value": "≤ 3", "unit": "h"},
      {"measurement": "effect on basal movement of adult worms", "setting": "[2]", "value": "markedly inhibited worm movements at rest"},
      {"measurement": "IC50", "setting": "[3]", "value": "701 ± 207", "unit": "nM"},
      {"measurement": "selectivity for Sm.5HTR over Hs.5HT7R", "setting": "[3]", "value": "clear selectivity for Sm.5HTR; also recorded: clear bias toward Sm.5HTR"},
      {"measurement": "potency (IC50) at Sm.5HTR", "setting": "[3]", "value": "sub-μM potency"},
      {"measurement": "IC50", "setting": "[3]; IC50 (antagonism of 5-HT evoked cAMP generation), 5-HT at EC80", "value": "~700", "unit": "nM"},
      {"measurement": "potency (IC50) at Hs.5HT7R", "setting": "[4]", "value": "supra-μM potency"},
      {"measurement": "effect on Hs.5HT7", "setting": "[4]; concentrations up to 50μM", "value": "lacking any effect"},
      {"measurement": "IC50", "setting": "[5]", "value": "≤ 1000", "unit": "nM"},
      {"measurement": "inhibition of 5-HT evoked cAMP generation through Sm.5HTRL", "setting": "[7]", "value": "inhibited 5-HT evoked cAMP generation"}
    ]}
  ]
}
